Data taken from patent US20220395472A1 (Dermavant Sciences GmbH, priority 2021, published 2022).

System: adults with plaque psoriasis
Experiment: Long-term open-label extension study (PSOARING 3): Physician Global Assessment (PGA), treatment episodes, treatment success, remittive effect
Type: in vivo, human
Details: for Proportion of subjects who never achieved PGA = 0 or 1 throughout the study / Proportion of subjects who achieved PGA = 0 or 1 at least 1 time during the study: entering with PGA ≥ 2
Experimental: This extension study consisted of up to 40 weeks of treatment and a 4 week, safety follow up period.
At the completion of the Week 12 visit of the DB, pivotal Phase 3 study, eligibility of the subjects opting to enroll in this extension study was confirmed. Study visits during the treatment period for all subjects occurred every 4 weeks (±3 days). A phone call was performed at Week 2 (Day 15). Unscheduled visits may have occurred, as needed. Subjects who withdrew from this study before Week 40 returned to the study center for an Early Termination visit. The total duration of this extension study participation was 44 weeks. Subjects in this study were treated as follows based on their PGA score from the Week 12 visit in the DB, pivotal Phase 3 study (Study DMVT 505 3001 or Study DMVT 505 3002).
The PGA was used to assess the primary efficacy endpoint in this study. The PGA is a clinical tool for assessing the current state/severity of a subject's psoriasis at a given time point. It is a static, 5 point, morphological assessment of overall disease severity, as determined by the Investigator, using the clinical characteristics of erythema, scaling, and plaque thickness/elevation as guidelines; higher PGA scores represent more severe disease (0=clear, 1=almost clear, 2=mild, 3=moderate, and 4=severe). The BSA affected was not considered in scoring of the PGA. Variations of the PGA are frequently used in clinical studies because it is a simple assessment, similar to those used in clinical practice. The PGA was performed first, prior to the % BSA, PASI, and LTS assessments.
Time to event parameters, such as the time from treatment success to subsequent worsening (PGA≥2) or duration of treatment episode, were summarized by the Kaplan Meier product limit method using OC.

[1] = entering with PGA = 0, Kaplan-Meier, Overall
[2] = entering with PGA = 0, Kaplan-Meier, Tapinarof (Pivotal) group
[3] = entering with PGA = 0, Kaplan-Meier, Vehicle (Pivotal) group
[4] = entering with PGA = 0, Tapinarof (Pivotal) group
[5] = entering with PGA = 0, Vehicle (Pivotal) group
[6] = entering with PGA ≥ 1, Kaplan-Meier, Vehicle (Pivotal) group
[7] = entering with PGA ≥ 1, Tapinarof (Pivotal) group
[8] = entering with PGA ≥ 1, Vehicle (Pivotal) group
[9] = final analysis, overall, baseline

## CC(C)c1c(O)cc(/C=C/c2ccccc2)cc1O [Tapinarof, 3,5-Dihydroxy-4-isopropyl-trans-stilbene]
Week 40 OC, Vehicle (Pivotal)
  PGA 2 - Mild: 35 (31.0) n (%)
  PGA 3 - Moderate: 15 (13.3) n (%)
  PGA 4 - Severe: 0 (0.0) n (%)
  PGA Change from Baseline: Improved by 1: 41 (36.3) n (%)
  PGA Change from Baseline: Improved by 2: 27 (23.9) n (%)
  PGA Change from Baseline: Improved by 3: 17 (15.0) n (%)
  PGA Change from Baseline: Improved by 4: 1 (0.9) n (%)
  PGA Change from Baseline: No Change: 19 (16.8) n (%)
  PGA Change from Baseline: Worsened by 1: 7 (6.2) n (%)
  PGA Change from Baseline: Worsened by 2: 1 (0.9) n (%)
  PGA Change from Baseline: Worsened by 3: 0 (0.0) n (%)
  PGA Change from Baseline: Worsened by 4: 0 (0.0) n (%)
Wk. 0, Overall
  Durability of Response, No. of Subjects: 240
Wk. 0, Tapinarof→Tapinarof
  Durability of Response, No. of Subjects: 18
Wk. 4, Overall
  Durability of Response, No. of Subjects: 273
Wk. 4, Tapinarof→Tapinarof
  Durability of Response, No. of Subjects: 216
Wk. 4, Vehicle→Tapinarof
  Durability of Response, No. of Subjects: 57
Wk. 8, Overall
  Durability of Response, No. of Subjects: 330
Wk. 8, Tapinarof→Tapinarof
  Durability of Response, No. of Subjects: 243
Wk. 8, Vehicle→Tapinarof
  Durability of Response, No. of Subjects: 87
Wk. 12, Overall
  Durability of Response, No. of Subjects: 334
Wk. 12, Tapinarof→Tapinarof
  Durability of Response, No. of Subjects: 233
Wk. 16, Overall
  Durability of Response, No. of Subjects: 336
Wk. 16, Tapinarof→Tapinarof
  Durability of Response, No. of Subjects: 239
Wk. 16, Vehicle→Tapinarof
  Durability of Response, No. of Subjects: 97
Wk. 20, Overall
  Durability of Response, No. of Subjects: 358
Wk. 20, Tapinarof→Tapinarof
  Durability of Response, No. of Subjects: 250
Wk. 24, Overall
  Durability of Response, No. of Subjects: 346
Wk. 24, Tapinarof→Tapinarof
  Durability of Response, No. of Subjects: 236
Wk. 28, Overall
  Durability of Response, No. of Subjects: 336
Wk. 28, Tapinarof→Tapinarof
  Durability of Response, No. of Subjects: 230
Wk. 32, Overall
  Durability of Response, No. of Subjects: 339
Wk. 32, Tapinarof→Tapinarof
  Durability of Response, No. of Subjects: 233
Wk. 36, Overall
  Durability of Response, No. of Subjects: 340
Wk. 36, Tapinarof→Tapinarof
  Durability of Response, No. of Subjects: 225
Wk. 40, Overall
  Durability of Response, No. of Subjects: 330
Wk. 40, Tapinarof→Tapinarof
  Durability of Response, No. of Subjects: 224
Entering with PGA = 0 (n=78), Kaplan-Meier, Overall, interim
  Time to First Worsening (PGA ≥ 2), Median (95% CI): 115 (85.0, 162.0) days
[1]
  Time to First Worsening (PGA ≥ 2), 25th percentile (95% CI): 54 (29.0, 66.0) days
  Time to First Worsening (PGA ≥ 2), 75th percentile (95% CI): 222 (169.0, 309.0) days
[2]
  Time to First Worsening (PGA ≥ 2), 25th percentile (95% CI): 54 (29.0, 76.0) days
  Time to First Worsening (PGA ≥ 2), 75th percentile (95% CI): 196 (168.0, 309.0) days
  Time to First Worsening (PGA ≥ 2), Median (95% CI): 114 (85.0, 142.0) days
[3]
  Time to First Worsening (PGA ≥ 2), 25th percentile (95% CI): 66 (42.0, NE) days
  Time to First Worsening (PGA ≥ 2), Median (95% CI): 281 (42.0, NE) days
Entering with PGA = 0, Overall
  Proportion of subjects who experienced PGA ≥ 2 at least 1 time during the study: 59/78 (75.6) %
  Proportion of subjects who never experienced PGA ≥ 2 throughout the study: 19/78 (24.4) %
Entering with PGA = 0, Overall, listed as tapinarof
  Proportion of subjects who experienced PGA ≥ 2 at least 1 time during the study: 75.6%
[4]
  Proportion of subjects who experienced PGA ≥ 2 at least 1 time during the study: 56/73 (76.7) %
  Proportion of subjects who never experienced PGA ≥ 2 throughout the study: 17/73 (23.3) %
[5]
  Proportion of subjects who experienced PGA ≥ 2 at least 1 time during the study: 3/5 (60.0) %
  Proportion of subjects who never experienced PGA ≥ 2 throughout the study: 2/5 (40.0) %
Entering with PGA ≥ 1, Kaplan-Meier, Overall
  Time to First Achieving PGA = 0, 25th percentile: 141 days
Entering with PGA ≥ 1, Kaplan-Meier, Overall, listed as tapinarof
  Time to First Achieving PGA = 0, 25th percentile: 141 days
Entering with PGA ≥ 1, Kaplan-Meier, Tapinarof (Pivotal) group
  Time to First Achieving PGA = 0, 25th percentile: 113 days
Entering with PGA ≥ 1, Kaplan-Meier, Tapinarof (Pivotal) group, listed as tapinarof
  Time to First Achieving PGA = 0, 25th percentile: 113 days
[6]
  Time to First Achieving PGA = 0, 25th percentile: 169 days
  Time to First Achieving PGA = 0, Median: 313 days
Entering with PGA ≥ 1, Kaplan-Meier, Vehicle (Pivotal) group, listed as tapinarof
  Time to First Achieving PGA = 0, 25th percentile: 169 days
Entering with PGA ≥ 1, Overall
  Proportion of subjects who achieved PGA = 0 at least 1 time during the study: 221/681 (32.5) %
  Proportion of subjects who never achieved PGA = 0 throughout the study: 460/681 (67.5) %
Entering with PGA ≥ 1, Overall, listed as tapinarof
  Proportion of subjects who achieved PGA = 0 at least 1 time during the study: 32.5%
[7]
  Proportion of subjects who achieved PGA = 0 at least 1 time during the study: 139/432 (32.2) %
  Proportion of subjects who never achieved PGA = 0 throughout the study: 293/432 (67.8) %
Entering with PGA ≥ 1, Tapinarof (Pivotal) group, listed as tapinarof
  Proportion of subjects who achieved PGA = 0 at least 1 time during the study: 32.2%
[8]
  Proportion of subjects who achieved PGA = 0 at least 1 time during the study: 82/249 (32.9) %
  Proportion of subjects who never achieved PGA = 0 throughout the study: 167/249 (67.1) %
Entering with PGA ≥ 1, Vehicle (Pivotal) group, listed as tapinarof
  Proportion of subjects who achieved PGA = 0 at least 1 time during the study: 32.9%
Overall
  Proportion of subjects who never achieved PGA = 0 or 1 throughout the study: 222/520 (42.7) %
Overall, interim
  Proportion of subjects who achieved PGA = 0 or 1 at least 1 time during the study: 298/520 (57.3) %
Overall, interim, listed as tapinarof
  Proportion of subjects who achieved PGA = 0 or 1 at least 1 time during the study: 57.3%
Tapinarof (Pivotal) group
  Proportion of subjects who achieved PGA = 0 or 1 at least 1 time during the study: 154/288 (53.5) %
  Proportion of subjects who never achieved PGA = 0 or 1 throughout the study: 134/288 (46.5) %
Tapinarof (Pivotal) group, listed as tapinarof
  Proportion of subjects who achieved PGA = 0 or 1 at least 1 time during the study: 53.5%
Vehicle (Pivotal) group
  Proportion of subjects who achieved PGA = 0 or 1 at least 1 time during the study: 144/232 (62.1) %
  Proportion of subjects who never achieved PGA = 0 or 1 throughout the study: 88/232 (37.9) %
Vehicle (Pivotal) group, listed as tapinarof
  Proportion of subjects who achieved PGA = 0 or 1 at least 1 time during the study: 62.1%
Final analysis
  Patients entering with PGA≥2 who achieved PGA 0 or 1 at least once during the study: 58.2%
Final analysis, 312/763
  Patients who achieved complete disease clearance (PGA=0) at least once during the study: 40.9%
Final analysis, overall, Week 40
  participants with PGA=0 or 1: 44.3%
[9]
  participants with PGA=0: 10.4%
  participants with PGA=0 or 1: 31.6%
Final analysis, patients entering with, or achieving, PGA=0 (n=312)
  mean total duration of remittive effect: 130 days
